This passage reports IC50 results from PubChem BioAssay AID1117347 (Cheminformatics & Chemogenomics Research Group (CCRG), …, 2015).

This assay relates to HeLa cell count decrease. Nature of the assay: decrease in HeLa cell numbers, dose-response curve, cell enumeration, 50% inhibitory concentration (AID 1117347).

“And” between values parts separate entries of the source, which are not always exact repeats. Equal entries are not always repeated. The source made the active and inactive calls. How the calls were made is not given here.

In the case of `CC[C@H]1CN2CCc3cc(OC)c(OC)cc3[C@@H]2C[C@@H]1C[C@H]1NCCc2cc(OC)c(OC)cc21`, the concentration for half-maximal inhibition (IC50) was 0.0327 µM. Turning to `CCC(C)(C)C(=O)O[C@H]1C[C@@H](C)C=C2C=C[C@H](C)[C@H](CC[C@@H]3C[C@@H](O)CC(=O)O3)[C@H]21`, the IC50 is > 10 µM (inactive). As to `CCCCCCCCCCCC[N+](C)(C)Cc1ccccc1`, the IC50 was > 10 µM (inactive). Take `CO[C@@H]1[C@@H](OC)[C@H](C)[C@@](O)(CC(=O)O)O[C@H]1[C@H](C)[C@H]1O[C@@]2(CC[C@@](C)([C@H]3CC[C@@](C)([C@@H]4O[C@@H]([C@H]5O[C@](C)(O)[C@H](C)C[C@@H]5C)C[C@@H]4OC4C[C@H](OC)[C@@H](OC)[C@H](C)O4)O3)O2)C[C@H](O)[C@H]1C` (stereo not given in full): the half-maximal inhibitory concentration (IC50) was 2.75 µM. Regarding `S=c1nc[nH]c2nc[nH]c12`, the IC50 is > 10 µM (inactive). The value for `OC[C@H]1O[C@@H](n2cnc3c(=S)nc[nH]c32)[C@H](O)[C@@H]1O` was > 10 µM (inactive); that for `O=C(NOCC1CC1)c1ccc(F)c(F)c1Nc1ccc(I)cc1Cl` was > 10 µM (inactive). As to `COc1ccc(-c2nc3ccc(C4=NNC(=O)CC4C)cc3[nH]2)cc1` (stereo not given), the IC50 was 7.23 µM (inactive). In the case of `O=[N+]([O-])c1ccc(Oc2ccc(N=C=S)cc2)cc1`, the IC50 is > 10 µM (inactive). Take `Nc1nc(=S)c2[nH]cnc2[nH]1`: the IC50 was > 10 µM (inactive). The value for `[O-][n+]1ccccc1SSc1cccc[n+]1[O-]` was 0.843 µM; that for `Cc1ccc(Nc2nccc(N(C)c3ccc4c(C)n(C)nc4c3)n2)cc1S(N)(=O)=O` was > 10 µM (inactive); that for `O=C1C(=O)c2ccccc2C(O)=C1C1CCC(c2ccc(Cl)cc2)CC1` (stereo not given) was > 10 µM (inactive).

As to `Nc1nc(=O)n([C@@H]2O[C@H](CO)[C@@H](O)[C@@H]2F)cc1I`, the IC50 was 8.5 µM (inactive). Then `C[C@@]12C(=O)OC(=O)[C@]1(C)C1CCC2O1`, with 1.01 µM; and `NC(=NCCCCCCN=C(N)/N=C(\N)Nc1ccc(Cl)cc1)/N=C(\N)Nc1ccc(Cl)cc1`, with 6.71 µM (inactive); and `COC(=O)c1nc(Cl)c(Cl)nc1N`, with 0.408 µM. The value for `O=C1C(I)=CC(=C(c2cc(I)c(O)c(I)c2)c2ccccc2C(=O)O)C=C1I` was > 10 µM (inactive); that for `COc1cccc2c1C(=O)c1c(O)c3c(c(O)c1C2=O)C[C@@](O)(C(=O)CO)C[C@@H]3O[C@H]1C[C@H](N)[C@H](O[C@@H]2CCCCO2)[C@H](C)O1` was 0.0514 µM; that for `COc1ccc2cc3[n+](cc2c1OC)CCc1cc2c(cc1-3)OCO2` was > 10 µM (inactive).

Take `Nc1nc(F)nc2c1ncn2[C@@H]1O[C@H](CO)[C@@H](O)[C@@H]1O`: the IC50 was > 10 µM (inactive). `COc1ccc(-c2ccc3cc(C(=O)O)ccc3c2)cc1C12CC3CC(CC(C3)C1)C2`: the IC50 was 5.49 µM (inactive). The value for `CC[C@]1(O)C[C@@H]2CN(CCc3c([nH]c4ccccc34)[C@@](C(=O)OC)(c3cc4c(cc3OC)N(C)[C@H]3[C@@](O)(C(=O)OC)[C@H](OC(C)=O)[C@]5(CC)C=CCN6CC[C@]43[C@@H]65)C2)C1` was 0.00521 µM and 0.0026 µM; that for `Cn1cnc([N+](=O)[O-])c1Sc1ncnc2nc[nH]c12` was > 10 µM (inactive); that for `Cc1cc(N)c2ccccc2[n+]1CCCCCCCCCC[n+]1c(C)cc(N)c2ccccc21` was > 10 µM (inactive).

For the molecule `Cc1c(C)c2c(c(C)c1O)CCC(C)(COc1ccc(CC3SC(=O)NC3=O)cc1)O2` (stereo not given), the IC50 is > 10 µM (inactive).

For `COCc1c(C(C)C)nc(C(C)C)c(/C=C/[C@@H](O)C[C@@H](O)CC(=O)O)c1-c1ccc(F)cc1`, the IC50 is > 10 µM (inactive). For the molecule `Cc1nc2ccc(CN(C)c3ccc(C(=O)N[C@@H](CCC(=O)O)C(=O)O)s3)cc2c(=O)[nH]1`, the IC50 was > 10 µM (inactive).

Regarding `Cc1cc(O)c2ccccc2c1O`, the IC50 is 2.46 µM. Then `CCN(CC)CCNC(=O)c1c(C)[nH]c(/C=C2\C(=O)Nc3ccc(F)cc32)c1C`, with 1.28 µM. With `CCCCCCNC(=O)n1cc(F)c(=O)[nH]c1=O`, the IC50 was > 10 µM (inactive). Consider `CC(C)=CCNc1ncnc2c1ncn2[C@@H]1O[C@H](CO)[C@@H](O)[C@H]1O`, for which the IC50 was 0.995 µM. With `CC(C)(C)C(=O)OCOP(=O)(COCCn1cnc2c(N)ncnc21)OCOC(=O)C(C)(C)C`, the IC50 is 0.134 µM.

For `CCCCCCCCCCCCCC[N+](C)(C)C`, the IC50 was 3.32 µM. The value for `CCC(C)n1ncn(-c2ccc(N3CCN(c4ccc(OC[C@H]5CO[C@](Cn6cncn6)(c6ccc(Cl)cc6Cl)O5)cc4)CC3)cc2)c1=O` (stereo not given in full) was > 10 µM (inactive); that for `O=C(O)CN(CCN(CC(=O)O)CC(=O)O)CCN(CC(=O)O)CC(=O)O` was > 10 µM (inactive); that for `COc1c(C)c2c(c(O)c1C/C=C(\C)CCC(=O)OCCN1CCOCC1)C(=O)OC2` was > 10 µM (inactive). The value for `C[C@]12CC[C@@H]3c4ccc(O)cc4CC[C@H]3[C@@H]1CC[C@@H]2OC(=O)CCC1CCCC1` was > 10 µM (inactive); that for `CC(C)=CCOc1ccc(/C=C/C(=O)c2ccc(OCC=C(C)C)cc2OCC(=O)O)cc1` was > 10 µM (inactive); that for `Cc1ccc(CCn2c3c(c4cc(Cl)ccc42)CN(C)CC3)cn1` was > 10 µM (inactive).

Regarding `Oc1c(I)cc(I)c2cccnc12`, the IC50 is > 10 µM (inactive).

Consider `Cc1ccc([N+](=O)[O-])[c]2c1[O][Hg]2`, for which the IC50 is 0.385 µM. For the molecule `CN1CCC(Nc2ncc3ncnc(Nc4ccc(F)c(Cl)c4)c3n2)CC1`, the IC50 is > 10 µM (inactive). For `CCCCCCCCCCCCCCCCNc1ccc(C(=O)O)cc1`, the IC50 was > 10 µM (inactive). On to `COC(=O)Nc1nc2ccc(Sc3ccccc3)cc2[nH]1`, for which the IC50 was 0.0097 µM.

Turning to `CCOc1ccc2nc3cc(N)ccc3c(N)c2c1`, the IC50 is 2.11 µM. Take `COc1ccc(/C=C/C(=O)c2ccc(OC)cc2OC)cc1`: the half-inhibitory concentration (IC50) is 0.708 µM. Then `CC(C)C[C@H](NC(=O)[C@H](CCc1ccccc1)NC(=O)CN1CCOCC1)C(=O)N[C@@H](Cc1ccccc1)C(=O)N[C@@H](CC(C)C)C(=O)[C@@]1(C)CO1`, with 0.0099 µM.

For `C=C(C)[C@H]1Cc2c(ccc3c2O[C@@H]2COc4cc(OC)c(OC)cc4[C@@H]2C3=O)O1`, the IC50 is 0.153 µM. The value for `O=C1c2c(O)ccc(O)c2C(=O)c2c(NCCNCCO)ccc(NCCNCCO)c21` was 0.0031 µM. The value for `CC[C@@H]([C@H](C)O)n1ncn(-c2ccc(N3CCN(c4ccc(OC[C@@H]5CO[C@@](Cn6cncn6)(c6ccc(F)cc6F)C5)cc4)CC3)cc2)c1=O` was > 10 µM (inactive); that for `CC[C@]1(O)C[C@H]2CN(CCc3c([nH]c4ccccc34)[C@@](C(=O)OC)(c3cc4c(cc3OC)N(C=O)[C@H]3[C@@](O)(C(=O)OC)[C@H](OC(C)=O)[C@]5(CC)C=CCN6CC[C@]43[C@@H]65)C2)C1` was 0.0065 µM; that for `CC(CC1c2ccccc2CCc2ccccc21)CN(C)C` (stereo not given) was > 10 µM (inactive).

On to `Cc1nc2ccccc2n1Cc1ccc(Cl)cc1`, for which the IC50 is 0.0318 µM. Turning to `Cc1nc(N)nc(N)c1-c1ccc(Cl)c(Cl)c1`, the IC50 is 1.01 µM.

Take `CCc1oc2ccccc2c1C(=O)c1cc(I)c(O)c(I)c1`: the IC50 is > 10 µM (inactive).

Regarding `COc1cc(NC(C)CCCN)c2ncccc2c1` (stereo not given), the IC50 was > 10 µM (inactive).

On to `COc1cc(NCc2ccc3nc(N)nc(N)c3c2C)cc(OC)c1OC`, for which the concentration for half-maximal inhibition (IC50) was 3.81 µM. Then `CCCCCCCCCCCCCCCC[n+]1ccccc1`, with 0.405 µM; and `C1CN(P2(N3CC3)=NP(N3CC3)(N3CC3)=NP(N3CC3)(N3CC3)=N2)CCO1` (stereo not given), with > 10 µM (inactive). Then `CCCNCC(O)COc1ccccc1C(=O)CCc1ccccc1` (stereo not given), with > 10 µM (inactive); and `Cc1cc(CC(C)CC(C)(C)C)n(O)c(=O)c1` (stereo not given), with 0.133 µM.

As for `Oc1c(Cl)cc(Cl)cc1Sc1cc(Cl)cc(Cl)c1O`, the IC50 is > 10 µM (inactive). The value for `Cc1nc(Nc2ncc(C(=O)Nc3c(C)cccc3Cl)s2)cc(N2CCN(CCO)CC2)n1` was 0.875 µM; that for `CC[C@@]1(O)C(=O)OCc2c1cc1n(c2=O)Cc2cc3c(CN(C)C)c(O)ccc3nc2-1` was 0.009 µM; that for `CC(C)n1c(/C=C/[C@@H](O)C[C@@H](O)CC(=O)O)c(-c2ccc(F)cc2)c2ccccc21` was > 10 µM (inactive). Take `O=C(Nc1ccc([N+](=O)[O-])cc1Cl)c1cc(Cl)ccc1O`: the IC50 is 0.144 µM. Then `C[C@@H]1C[C@@H]([C@H](O)CC2CC(=O)NC(=O)C2)C(=O)[C@@H](C)C1`, with 0.542 µM; and `O=C(O)CCCc1ccc(N(CCCl)CCCl)cc1`, with > 10 µM (inactive). Take `CCCSc1ccc2nc(NC(=O)OC)[nH]c2c1`: the half-maximal inhibitory concentration (IC50) is 0.0377 µM. Take `CC(=O)Oc1ccc(C2(c3ccc(OC(C)=O)cc3)Oc3ccccc3NC2=O)cc1`: the IC50 is 5.75 µM (inactive). As for `CCCCCCCCCCCC(=O)[O][Sn]([CH2]CCC)([CH2]CCC)[O]C(=O)CCCCCCCCCCC`, the IC50 is > 10 µM (inactive). Then `Cc1ccccc1C(OCCN(C)C)c1ccccc1` (stereo not given), with > 10 µM (inactive); and `COC(=O)Nc1nc2ccc(C(=O)c3ccccc3)cc2[nH]1`, with 0.0542 µM; and `NCCCC[C@H](N[C@@H](CCc1ccccc1)C(=O)O)C(=O)N1CCC[C@H]1C(=O)O`, with > 10 µM (inactive).

For `Cc1ccccc1C(=O)Nc1ccc(C(=O)N2CCCC(N(C)C)c3ccccc32)cc1` (stereo not given), the IC50 is 2.91 µM. Then `CCCCCCCCCCCCCCCCCCNC(=O)OC1CCN(C(=O)OC[C@H](COC(=O)N(Cc2cccc[n+]2CC)C(=O)c2ccccc2OC)OC)CC1`, with 6.14 µM (inactive); and `COc1cc(-c2ccc(=O)[nH]n2)ccc1OC(F)F`, with 0.0092 µM. Then `C=CC(=O)Nc1cc2c(Nc3ccc(F)c(Cl)c3)ncnc2cc1OCCCN1CCOCC1`, with 2.09 µM. The value for `CN(Cc1cnc2nc(N)nc(N)c2n1)c1ccc(C(=O)N[C@@H](CCC(=O)O)C(=O)O)cc1` was > 10 µM (inactive).
